Experiments:
Format in all cases: cell-based
[1] = tested on: MCF-7 breast cancer cells; assay: Inhibition of MCF-7 breast cancer cell proliferation; conditions: Homo sapiens, MCF7; 0.1 nM 17β-estradiol-dependent growth, 72 h, 3H-thymidine incorporation
Procedure: MCF-7 cells represent an excellent in vitro system to study the effects of compounds on estrogen-dependent breast cancer growth. (May, F.E.B.; Westley, B. R. J. Biol. Chem. 262:15894-15899, 1987). Benzopyranone compounds having an IC50<100 nM are particularly useful as anti-breast cancer agents in vivo.
MCF-7 breast carcinoma cells were plated in 24-well dishes at a density of 5×10^3 cells/well in phenol-red free DMEM:F-12 (1:1) medium containing 1% antibiotics, 0.05% mercaptoethanol, 0.01% ethanolamine, 0.42 ng/mL sodium selenite and 5% charcoal-stripped FCS.
Illustrative benzopyranone compounds (0.1-1000 nM in 0.2% DMSO) and 0.1 nM 17β-estradiol were added to the cultured MCF-7 breast cancer cells for 72 h. Subsequently, 3H-labeled thymidine was added and its incorporation into cells was measured following 4h incubation. The results are expressed as IC50 (nM) values (Table 2) which is the concentration of the benzopyranone compound necessary to inhibit the growth of MCF-7 breast cancer cells by 50% relative to controls.

[2] = tested on: IL-6 release from human U-2 OS osteosarcoma cells stably transfected with human ER-α; assay: Inhibition of IL-6 release; conditions: U2OS; U-2 OS cells transfected with human ER-α, stimulated with 2.5 ng/ml TNFα and 1 ng/ml IL-1, IL-6 by ELISA after 24 h, relative to vehicle
Procedure: Illustrative benzopyranone compounds were tested for their ability to inhibit IL-6 release from human U-2 OS osteosarcoma cells stably transfected with human ER-α. (Stein, B.; Yang, M. X. Mol. Cell. Biol 15: 4971-4979, 1995; Poli, V. et. al., EMBO J. 13:1189-1196, 1994). […] Benzopyranone compounds having an IC50<100 nM are particularly useful as bone resorption inhibitors in vivo. Accordingly, the compounds of this assay, illustrative benzopyranone compounds, are particularly useful for the treatment of osteoporosis, Paget's disease and metastatic bone cancer. These compounds are also useful as anti-cancer agents as elevated IL-6 levels are responsible for certain cancers such as multiple myeloma, prostate cancer, ovarian cancer, renal carcinoma and cervical carcinoma.
Human U-2 OS osteosarcoma cells (ATCC) were stably transfected with expression vectors for human full-length ER-α using standard molecular biology techniques. Stable subclones were generated that expressed high levels of ER-α mRNA. The expression of ER-α was confirmed using RNase protection analysis.
Cells were plated into 96-well plates at a density of 80,000 cells per well in phenol red-free media with charcoal-stripped fetal calf serum. Twenty four hours later, cells were either treated with vehicle (0.2% DMSO) or test compound (0.01 B 100 nm in 0.2% DMSO). Thirty minutes later cells were stimulated with 2.5 ng/ml TNFα and 1 ng/ml IL-1. Twenty-four hours later the media supernatant was analyzed for cytokine production (IL-6) using commercially available ELISA kits following the manufacturer=s instructions. Cytokine production in the presence of vehicle (0.2% DMSO) was set to 100%. The results are expressed as IC50 (nM) values (Table 2) which is the concentration of the benzopyranone compound necessary to inhibit the production of IL-6 50% relative to the amount of IL-6 produced in the presence of vehicle.

[3] = tested on: BG-1 ovarian carcinoma cells; assay: Inhibition of BG-1 ovarian carcinoma cell proliferation; conditions: 0.1 nM 17β-estradiol-dependent growth, 72 h, 3H-thymidine incorporation
Procedure: BG-1 cells serve as a useful in vitro model for the evaluation of the effects of antiestrogenic compounds on ovarian tumor growth (Greenberger, L. M. et. al., Clin. Cancer Res. 7:3166-3177, 2001). Benzopyranone compounds having an IC50<100 nM are particularly useful as anti-ovarian cancer agents in vivo.
BG-1 ovarian carcinoma cells were plated in 24-well dishes at a density of 5×10^3 cells/well in phenol-red free DMEM:F-12 (1:1) medium containing 1% antibiotics, 0.05% mercaptoethanol, 0.01% ethanolamine, 0.42 ng/mL sodium selenite and 5% charcoal-stripped FCS. Illustrative benzopyranone compounds (0.1-1000 nM in 0.2% DMSO) and 0.1 nM 17β-estradiol were added to the cultured BG-1 ovarian carcinoma cells and incubated for 72 h. Subsequently, ^3H-labeled thymidine was added and its incorporation into cells was measured following 4h incubation. The results are expressed as IC50 (nM) values (Table 2) which is the concentration of the benzopyranone compound necessary to inhibit the growth of BG-1 ovarian carcinoma cells by 50% relative to controls.

SMILES	IC50 [1] [nM]	IC50 [2] [nM]	IC50 [3] [nM]
O=c1oc2cc(O)ccc2c(Cc2ccc(OCCN3CCCC3)cc2)c1-c1ccc(Cl)cc1	26	0.4	5.8
O=c1oc2cc(O)ccc2c(Cc2ccc(OCCN3CCCC3)cc2)c1-c1ccc(Cl)cc1C(F)(F)F	3	0.4	2.3
O=c1oc2cc(O)ccc2c(Cc2ccc(OCCN3CCCC3)cc2)c1-c1ccc(C(F)(F)F)cc1C(F)(F)F	26	1	5.5
O=c1oc2cc(O)ccc2c(Cc2ccc(OCCN3CCCC3)cc2)c1-c1ccc(C(F)(F)F)cc1Cl	4.5	0.5	4.65
O=c1oc2cc(O)ccc2c(Cc2ccc(OCCN3CCCC3)cc2)c1-c1ccc(C(F)(F)F)cc1	13.6	1.5	13.6
O=c1oc2cc(O)ccc2c(Cc2ccc(OCCN3CCCC3)cc2)c1-c1ccc(Cl)cc1Cl	6.5	0.29	1.4

From patent US20070015817A1, “4-((4-(2-pyrrolidinylethoxy)phenyl)methyl)-3-(4-(trifluoromethyl)phenyl)-7-hydroxychromen-2one, pharmaceutically acceptable salts thereof and methods of use therewith” (priority 2002, published 2007)
